Columns and labels:
Type in all cases: cell-based
[1] = system: Staphylococcus aureus T26A4; assay: Second screening, agar dilution MIC
Experimental: (§1) Clinical bacterial isolates from human samples collected in Lille (France) and some collection strains were used. The first screening step on pathogenic bacteria was carried out with crude hydro-alcoholic extracts of different hop parts (Table 1). The second screening was performed using sub-extracts of cones on Gram-positive bacteria, including methicillin-sensitive Staphylococcus aureus (MSSA) and methicillin-resistant Staphylococcus aureus […] (Table 2). These tests were carried out on Petri dishes, Mueller-Hinton Agar (MHA) (Oxoid, UK) was mixed with the plant extract solution in MeOH at 5% (solvent control: 5% MeOH). Final extract concentrations in Petri dishes ranged from 1250 to 4.9 µg/mL. A multi-headed inoculator allowed spotting bacterial strains at 10^5 CFU/mL in cysteinated Ringer (CR) solution (Merck®, France). Minimal Inhibitory Concentrations (MICs) were visually determined after 24 h of incubation at 37 °C.

[2] = system: Streptococcus agalactiae 13225; assay: Second screening, agar dilution MIC
Experimental: as §1

[3] = system: Staphylococcus aureus T36B1; assay: Second screening, agar dilution MIC
Experimental: as §1

[4] = system: Staphylococcus lugdunensis T26A3; assay: Second screening, agar dilution MIC; conditions: Table 2
Experimental: as §1

[5] = system: Streptococcus agalactiae T25.7; assay: Second screening, agar dilution MIC
Experimental: as §1

[6] = system: Staphylococcus aureus 8147; assay: Second screening, agar dilution MIC; conditions: Table 2
Experimental: as §1

[7] = system: Staphylococcus epidermidis 5001; assay: Second screening, agar dilution MIC; conditions: Table 2
Experimental: as §1

[8] = system: Streptococcus agalactiae T38.2; assay: Second screening, agar dilution MIC
Experimental: as §1

[9] = system: Streptococcus agalactiae T40A2; assay: Second screening, agar dilution MIC
Experimental: as §1

[10] = system: Staphylococcus aureus T6.7; assay: Second screening, agar dilution MIC
Experimental: as §1

[11] = system: Enterococcus faecalis T37A4; assay: Second screening, agar dilution MIC
Experimental: as §1

[12] = system: Staphylococcus aureus T1.1; assay: Second screening, agar dilution MIC
Experimental: as §1

[13] = system: Staphylococcus aureus T25.10; assay: Second screening, agar dilution MIC
Experimental: as §1

[14] = system: Enterococcus faecalis T26-B7; assay: Second screening, agar dilution MIC
Experimental: as §1

[15] = system: Staphylococcus aureus T25.9; assay: Second screening, agar dilution MIC
Experimental: as §1

[16] = system: Staphylococcus aureus CIP 224; assay: Second screening, agar dilution MIC
Experimental: as §1

[17] = system: Enterococcus faecalis T39-C11; assay: Second screening, agar dilution MIC
Experimental: as §1

[18] = system: Staphylococcus aureus T28.1; assay: Second screening, agar dilution MIC
Experimental: as §1

[19] = system: Staphylococcus aureus T47A12; assay: Second screening, agar dilution MIC
Experimental: as §1

[20] = system: Corynebacterium T25-17; assay: Second screening, agar dilution MIC; conditions: Table 2
Experimental: as §1

[21] = system: Streptococcus agalactiae 13226; assay: Second screening, agar dilution MIC
Experimental: as §1

[22] = system: Staphylococcus saprophyticus 08237; assay: Second screening, agar dilution MIC
Experimental: as §1

[23] = system: Enterococcus faecalis T34-2; assay: Second screening, agar dilution MIC
Experimental: as §1

[24] = system: Staphylococcus aureus T25.3; assay: Second screening, agar dilution MIC
Experimental: as §1

[25] = system: Staphylococcus pettenkoferi T3.3; assay: Second screening, agar dilution MIC
Experimental: as §1

[26] = system: Citrobacter freundii 11041; assay: First screening, agar dilution MIC
Experimental: as §1

[27] = system: Salmonella sp. 11033; assay: First screening, agar dilution MIC
Experimental: as §1

[28] = system: Providencia stuartii 11038; assay: First screening, agar dilution MIC
Experimental: as §1

[29] = system: Staphylococcus epidermidis 10282; assay: First screening, agar dilution MIC
Experimental: as §1

[30] = system: Staphylococcus warneri T12A12; assay: First screening, agar dilution MIC
Experimental: as §1

[31] = system: Enterobacter cloacae 11051; assay: First screening, agar dilution MIC
Experimental: as §1

[32] = system: Staphylococcus lugdunensis T26A3; assay: First screening, agar dilution MIC
Experimental: as §1

[33] = system: Staphylococcus aureus 8147; assay: First screening, agar dilution MIC
Experimental: as §1

[34] = system: Staphylococcus epidermidis 5001; assay: First screening, agar dilution MIC
Experimental: as §1

[35] = system: Streptococcus dysgalactiae T46C14; assay: First screening, agar dilution MIC
Experimental: as §1

[36] = system: Enterococcus faecalis C159-6; assay: First screening, agar dilution MIC
Experimental: as §1

[37] = system: Enterococcus sp. 8153; assay: First screening, agar dilution MIC
Experimental: as §1

[38] = system: Mycobacterium smegmatis 5003; assay: First screening, agar dilution MIC
Experimental: as §1

[39] = system: Acinetobacter baumannii 9010; assay: First screening, agar dilution MIC
Experimental: as §1

[40] = system: Enterobacter cloacae 11053; assay: First screening, agar dilution MIC
Experimental: as §1

[41] = system: Enterobacter cloacae 11050; assay: First screening, agar dilution MIC
Experimental: as §1

[42] = system: Pseudomonas aeruginosa ATCC 27583; assay: First screening, agar dilution MIC
Experimental: as §1

[43] = system: Streptococcus agalactiae T53C2; assay: First screening, agar dilution MIC
Experimental: as §1

[44] = system: Klebsiella pneumoniae 11017; assay: First screening, agar dilution MIC
Experimental: as §1

[45] = system: Serratia marcescens 11056; assay: First screening, agar dilution MIC
Experimental: as §1

[46] = system: Stenotrophomonas maltophilia; assay: First screening, agar dilution MIC
Experimental: as §1

[47] = system: Serratia marcescens 11057; assay: First screening, agar dilution MIC
Experimental: as §1

[48] = system: Escherichia coli 8157; assay: First screening, agar dilution MIC
Experimental: as §1

[49] = system: Klebsiella pneumoniae 11016; assay: First screening, agar dilution MIC
Experimental: as §1

[50] = system: Corynebacterium T25-17; assay: First screening, agar dilution MIC
Experimental: as §1

[51] = system: Citrobacter freundii 11042; assay: First screening, agar dilution MIC
Experimental: as §1

[52] = system: Staphylococcus aureus 8146; assay: First screening, agar dilution MIC
Experimental: as §1

[53] = system: Escherichia coli 8138; assay: First screening, agar dilution MIC
Experimental: as §1

[54] = system: Escherichia coli ATCC 25922; assay: First screening, agar dilution MIC
Experimental: as §1

[55] = system: Acinetobacter baumannii 9011; assay: First screening, agar dilution MIC
Experimental: as §1

[56] = system: Streptococcus agalactiae T25-7; assay: First screening, agar dilution MIC
Experimental: as §1

[57] = system: Pseudomonas aeruginosa 8131; assay: First screening, agar dilution MIC
Experimental: as §1

[58] = system: Proteus mirabilis 11060; assay: First screening, agar dilution MIC
Experimental: as §1

CNC(C)C1CCC(N)C(OC2C(N)CC(N)C(OC3OCC(C)(O)C(NC)C3O)C2O)O1 (stereo not shown) [GEN, Gentamicin]
Susceptibility to GEN [1]: S (Gentamicin (GEN) S ≤ 4)
Susceptibility to GEN [2]: S (Gentamicin (GEN) S ≤ 4)
Susceptibility to GEN [3]: S (Gentamicin (GEN) S ≤ 4)
Susceptibility to GEN [4]: S (Gentamicin (GEN) S ≤ 4)
Susceptibility to GEN [5]: I
Susceptibility to GEN [6]: S (Gentamicin (GEN) S ≤ 4)
Susceptibility to GEN [7]: S (Gentamicin (GEN) S ≤ 4)
Susceptibility to GEN [8]: S (Gentamicin (GEN) S ≤ 4)
Susceptibility to GEN [9]: S (Gentamicin (GEN) S ≤ 4)
Susceptibility to GEN [10]: S (Gentamicin (GEN) S ≤ 4)
Susceptibility to GEN [11]: R (R > 8)
Susceptibility to GEN [12]: S (Gentamicin (GEN) S ≤ 4)
Susceptibility to GEN [13]: S (Gentamicin (GEN) S ≤ 4)
Susceptibility to GEN [14]: R (R > 8)
Susceptibility to GEN [15]: S (Gentamicin (GEN) S ≤ 4)
Susceptibility to GEN [16]: S (Gentamicin (GEN) S ≤ 4)
Susceptibility to GEN [17]: S (Gentamicin (GEN) S ≤ 4)
Susceptibility to GEN [18]: S (Gentamicin (GEN) S ≤ 4)
Susceptibility to GEN [19]: S (Gentamicin (GEN) S ≤ 4)
Susceptibility to GEN [20]: S (Gentamicin (GEN) S ≤ 4)
Susceptibility to GEN [21]: S (Gentamicin (GEN) S ≤ 4)
Susceptibility to GEN [22]: S (Gentamicin (GEN) S ≤ 4)
Susceptibility to GEN [23]: S (Gentamicin (GEN) S ≤ 4)
Susceptibility to GEN [24]: S (Gentamicin (GEN) S ≤ 4)
Susceptibility to GEN [25]: S (Gentamicin (GEN) S ≤ 4)
Susceptibility to GEN [26]: S (Gentamicin (GEN) S ≤ 4)
Susceptibility to GEN [27]: S (Gentamicin (GEN) S ≤ 4)
Susceptibility to GEN [28]: S (Gentamicin (GEN) S ≤ 4)
Susceptibility to GEN [29]: S (Gentamicin (GEN) S ≤ 4)
Susceptibility to GEN [30]: S (Gentamicin (GEN) S ≤ 4)
Susceptibility to GEN [31]: R (R > 8)
Susceptibility to GEN [32]: S (Gentamicin (GEN) S ≤ 4)
Susceptibility to GEN [33]: S (Gentamicin (GEN) S ≤ 4)
Susceptibility to GEN [34]: S (Gentamicin (GEN) S ≤ 4)
Susceptibility to GEN [35]: S (Gentamicin (GEN) S ≤ 4)
Susceptibility to GEN [36]: R (R > 8)
Susceptibility to GEN [37]: R (R > 8)
Susceptibility to GEN [38]: S (Gentamicin (GEN) S ≤ 4)
Susceptibility to GEN [39]: S (Gentamicin (GEN) S ≤ 4)
Susceptibility to GEN [40]: S (Gentamicin (GEN) S ≤ 4)
Susceptibility to GEN [41]: S (Gentamicin (GEN) S ≤ 4)
Susceptibility to GEN [42]: R (R > 8)
Susceptibility to GEN [43]: S (Gentamicin (GEN) S ≤ 4)
Susceptibility to GEN [44]: S (Gentamicin (GEN) S ≤ 4)
Susceptibility to GEN [45]: S (Gentamicin (GEN) S ≤ 4)
Susceptibility to GEN [46]: S (Gentamicin (GEN) S ≤ 4)
Susceptibility to GEN [47]: R (R > 8)
Susceptibility to GEN [48]: S (Gentamicin (GEN) S ≤ 4)
Susceptibility to GEN [49]: S (Gentamicin (GEN) S ≤ 4)
Susceptibility to GEN [50]: S (Gentamicin (GEN) S ≤ 4)
Susceptibility to GEN [51]: S (Gentamicin (GEN) S ≤ 4)
Susceptibility to GEN [52]: S (Gentamicin (GEN) S ≤ 4)
Susceptibility to GEN [53]: S (Gentamicin (GEN) S ≤ 4)
Susceptibility to GEN [54]: S (Gentamicin (GEN) S ≤ 4)
Susceptibility to GEN [55]: R (R > 8)
Susceptibility to GEN [56]: R (R > 8)
Susceptibility to GEN [57]: S (Gentamicin (GEN) S ≤ 4)
Susceptibility to GEN [58]: S (Gentamicin (GEN) S ≤ 4)
